According to patent US20100029609A1 (priority 2006, published 2010):

Target: T1, human S1P1 receptors (Homo sapiens, UniProt P21453)
T1 construct: expressed in transfected cells; host or cells: HeLa (human cervix carcinoma, ATCC CCL2), HeLa-S1P1/Gα16 cell clone 1
Test: Human S1P Receptor Calcium FLIPR Antagonist Assay, HeLa Gα16 S1P1
Type: cell-based
Settings: HeLa-S1P1/Gα16 cells; antagonism of Ca2+ signal of probing agonist GNF-AC-1 at EC80
Excerpt: Human S1P Receptor Calcium FLIPR Antagonist Assays
The assay measures intracellular changes of Ca^2+ mediated by the synthetic probing agonist 3-{[2-(2-Trifluoromethyl-biphenyl-4-yl)-benzo[b]thiophen-5-ylmethyl]-amino}-propionic acid (GNF-AC-1) in the HeLa-S1P1/Gα16 cell clone 1: HeLa (human cervix carcinoma, ATCC CCL2) cells stably expressing N-terminally myc-tagged human S1P1 receptors (GenBank™ accession No. NM_001400; UNIPROT P21453) and promiscuous Gα16 protein (GenBank™ accession number M63904, Swissprot P30679) are cultured at 37° C., 5% CO2, and 95% relative humidity. The cells are plated in 384 well black plates (10,000 cells per well). After 24 hours the cells are loaded with Fluo4-AM (1.6 μM in HBSS and 2.5 mM probenicid) for 1 hour at 37° C. After washing, the cells are transferred to the FLIPR. The test compounds are added at different concentrations (≦30 μM) in HBSS in the presence of 0.1% BSA and changes in fluorescence are recorded (indication of agonism). The probing agonist is added 15 minutes afterwards to the wells at a concentration giving 80% of the maximal activity (EC80). After each addition time points are collected as follows: 20 time points (2 seconds) before the addition of the agonist (Fmin) and 60 time points (1 or 2 seconds) after the addition of the probing agonist. This allows the determination of the maximal fluorescence (Fmax). The ratio (Fmax-Fmin)/Fmin is plotted against the log of the concentration of the test compounds and the IC50 (relative antagonism) is determined with the help of XLfit-4 software. […] A dose response curve of the probing agonist is determined on each plate in parallel. The compounds of the invention are typically active in this assay at a concentration ranging typically from <1 nM to 30 μM, usually from less than 1 nanomolar to 1 micromolar.

T1 sequence (P21453 whole entry): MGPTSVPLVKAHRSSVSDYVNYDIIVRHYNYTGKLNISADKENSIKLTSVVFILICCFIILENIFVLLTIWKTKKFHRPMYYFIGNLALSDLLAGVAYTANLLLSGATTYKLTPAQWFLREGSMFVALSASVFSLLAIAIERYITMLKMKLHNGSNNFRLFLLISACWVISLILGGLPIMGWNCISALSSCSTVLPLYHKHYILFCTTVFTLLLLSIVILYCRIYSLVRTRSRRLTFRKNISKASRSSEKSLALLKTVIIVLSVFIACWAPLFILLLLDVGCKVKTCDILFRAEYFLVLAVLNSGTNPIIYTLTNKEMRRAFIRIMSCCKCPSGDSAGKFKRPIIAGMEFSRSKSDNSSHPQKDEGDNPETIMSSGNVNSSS

IC50 [nM] | SMILES
5 | Cc1cc(S(=O)(=O)Nc2cccc(-c3cc(C)c(C(=O)NC(C)(C)C(=O)O)c(C)c3)c2)c(C)cc1Cl [Example 148, 2-{[3′-(4-Chloro-2,5-dimethyl-benzenesulfonylamino)-3,5-dimethyl-biphenyl-4-carbonyl]-amino}-2-methyl-propionic acid]
3 | Cc1cc(S(=O)(=O)Nc2cccc(-c3ccc(C(=O)NC4(C(=O)O)CNC4)c(C)c3)c2)c(C)cc1Cl [Example 51, 3-{[3′-(4-Chloro-2,5-dimethyl-benzenesulfonylamino)-3-methyl-biphenyl-4-carbonyl]-amino}-azetidine-3-carboxylic acid]
2 | Cc1cc(S(=O)(=O)Nc2cccc(-c3cc(C)c(C(=O)NC4(C(=O)O)CCN(C)CC4)c(C)c3)c2)c(C)cc1Cl [Example 155, 4-{[3′-(4-Chloro-2,5-dimethyl-benzenesulfonylamino)-3,5-dimethyl-biphenyl-4-carbonyl]-amino}-1-methyl-piperidine-4-carboxylic acid]
1.5 | Cc1cc(S(=O)(=O)Nc2cccc(-c3ccc(C(=O)N[C@H](C(=O)O)[C@@H](C)O)c(C)c3)c2)c(C)cc1Cl [Example 47, (2S,3R)-2-{[3′-(4-Chloro-2,5-dimethyl-benzenesulfonylamino)-3-methyl-biphenyl-4-carbonyl]-amino}-3-hydroxy-butyric acid]
5 | Cc1cc(S(=O)(=O)Nc2cccc(-c3cnc(C(=O)N[C@@H](CO)C(=O)O)cn3)c2)c(C)cc1Cl [Example 79, (S)-2-({5-[3-(4-Chloro-2,5-dimethyl-benzenesulfonylamino)-phenyl]-pyrazine-2-carbonyl}-amino)-3-hydroxy-propionic acid]
5.5 | Cc1cc(S(=O)(=O)Nc2cccc(-c3ccc(C(=O)NCc4nnn[nH]4)c(C)c3)c2)c(C)cc1Cl [Example 66, 3′-(4-Chloro-2,5-dimethyl-benzenesulfonylamino)-3-methyl-biphenyl-4-carboxylic acid (1H-tetrazol-5-ylmethyl)-amide]
4 | Cc1cc(S(=O)(=O)Nc2cccc(-c3cc(C)c(C(=O)NC4(C(=O)O)CN(C(=O)OC(C)(C)C)C4)c(C)c3)c2)c(C)cc1Cl [Example 144, 3-{[3′-(4-Chloro-2,5-dimethyl-benzenesulfonylamino)-3,5-dimethyl-biphenyl-4-carbonyl]-amino}-azetidine-1,3-dicarboxylic acid mono-tert-butyl ester]
1 | COc1cc(-c2cccc(NS(=O)(=O)c3cc(C)c(Cl)cc3C)c2)ccc1C(=O)N[C@@H](CO)C(=O)O [Example 71, (S)-2-{[3′-(4-Chloro-2,5-dimethyl-benzenesulfonylamino)-3-methoxy-biphenyl-4-carbonyl]-amino}-3-hydroxy-propionic acid]
1.5 | Cc1cc(S(=O)(=O)Nc2cccc(-c3ccc(C(=O)N[C@H](CO)C(=O)O)cc3)c2)c(C)cc1Cl [Example 86]
9.4 | Cc1cc(S(=O)(=O)Nc2cccc(-c3ccc(C(=O)N[C@H](CC(=O)O)c4ccccc4)cc3)c2)c(C)cc1Cl [Example 36, (R)-3-{[3′-(4-Chloro-2,5-dimethyl-benzenesulfonylamino)-biphenyl-4-carbonyl]-amino}-3-phenyl-propionic acid]
1 | Cc1cc(S(=O)(=O)Nc2cccc(-c3cc(C)c(C(=O)NCC(=O)O)c(C)c3)c2)c(C)cc1Cl [Example 137, {[3′-(4-Chloro-2,5-dimethyl-benzenesulfonylamino)-3,5-dimethyl-biphenyl-4-carbonyl]-amino}-acetic acid]
2.8 | Cc1cc(S(=O)(=O)Nc2cccc(-c3ccc(C(=O)N[C@@H](CO)C(=O)O)cc3)c2)c(C)cc1Cl [Example 28]
5.5 | Cc1cc(S(=O)(=O)Nc2cccc(-c3cc(C)c(C(=O)N[C@@H](CN)C(=O)O)c(C)c3)c2)c(C)cc1Cl [Example 142, (S)-3-Amino-2-{[3′-(4-chloro-2,5-dimethyl-benzenesulfonylamino)-3,5-dimethyl-biphenyl-4-carbonyl]-amino}-propionic acid]
3 | Cc1cc(S(=O)(=O)Nc2cccc(-c3cc(C)c(C(=O)N[C@@H](CO)C(N)=O)c(C)c3)c2)c(C)cc1Cl [Example 153, 3′-(4-Chloro-2,5-dimethyl-benzenesulfonylamino)-3,5-dimethyl-biphenyl-4-carboxylic acid ((S)-1-carbamoyl-2-hydroxy-ethyl)-amide]
3.5 | Cc1cc(S(=O)(=O)Nc2cccc(-c3cc(C)c(C(=O)NC4(C(=O)O)CCC4)c(C)c3)c2)c(C)cc1Cl [Example 147, 1-{[3′-(4-Chloro-2,5-dimethyl-benzenesulfonylamino)-3,5-dimethyl-biphenyl-4-carbonyl]-amino}-cyclobutanecarboxylic acid]
0.4 | Cc1cc(S(=O)(=O)Nc2cccc(-c3ccc(C(=O)N[C@H](C(=O)O)C(C)(C)O)c(C)c3)c2)c(C)cc1Cl [Example 61, (S)-2-{[3′-(4-Chloro-2,5-dimethyl-benzenesulfonylamino)-3-methyl-biphenyl-4-carbonyl]-amino}-3-hydroxy-3-methyl-butyric acid]
1.1 | Cc1cc(S(=O)(=O)Nc2cccc(-c3cc(C)c(C(=O)N[C@@H](C)C(=O)O)c(C)c3)c2)c(C)cc1Cl [Example 132, (S)-2-{[3′-(4-Chloro-2,5-dimethyl-benzenesulfonylamino)-3,5-dimethyl-biphenyl-4-carbonyl]-amino}-propionic acid]
1.7 | COC[C@H](NC(=O)c1c(C)cc(-c2cccc(NS(=O)(=O)c3cc(C)c(Cl)cc3C)c2)cc1C)C(=O)O [Example 136, (S)-2-{[3′-(4-Chloro-2,5-dimethyl-benzenesulfonylamino)-3,5-dimethyl-biphenyl-4-carbonyl]-amino}-3-methoxy-propionic acid]
7 | Cc1cc(S(=O)(=O)Nc2cccc(-c3cc(C)c(C(=O)N[C@H](C)C(=O)O)c(C)c3)c2)c(C)cc1Cl [Example 134, (R)-2-{[3′-(4-Chloro-2,5-dimethyl-benzenesulfonylamino)-3,5-dimethyl-biphenyl-4-carbonyl]-amino}-propionic acid]
1.5 | COC[C@H](NC(=O)c1ccc(-c2cccc(NS(=O)(=O)c3cc(C)c(Cl)cc3C)c2)cc1C)C(=O)O [Example 60, (S)-2-{[3′-(4-Chloro-2,5-dimethyl-benzenesulfonylamino)-3-methyl-biphenyl-4-carbonyl]-amino}-3-methoxy-propionic acid]
1.6 | Cc1cc(S(=O)(=O)Nc2cccc(-c3cc(C)c(C(=O)NC4(C(=O)O)CN(C)C4)c(C)c3)c2)c(C)cc1Cl [Example 150, 3-{[3′-(4-Chloro-2,5-dimethyl-benzenesulfonylamino)-3,5-dimethyl-biphenyl-4-carbonyl]-amino}-1-methyl-azetidine-3-carboxylic acid]
3.2 | Cc1cc(S(=O)(=O)Nc2cccc(-c3ccc(C(=O)NCC(=O)O)cc3)c2)c(C)cc1Cl [Example 23, {[3′-(4-Chloro-2,5-dimethyl-benzenesulfonylamino)-biphenyl-4-carbonyl]-amino}-acetic acid]
3.5 | Cc1cc(S(=O)(=O)Nc2cccc(-c3cc(C)c(C(=O)N[C@H](CO)C(=O)O)c(C)c3)c2)c(C)cc1Cl [Example 133, (R)-2-{[3′-(4-Chloro-2,5-dimethyl-benzenesulfonylamino)-3,5-dimethyl-biphenyl-4-carbonyl]-amino}-3-hydroxy-propionic acid]
2 | Cc1cc(S(=O)(=O)Nc2cccc(-c3cc(C)c(C(=O)NC4(C(=O)O)CNC4)c(C)c3)c2)c(C)cc1Cl [Example 145, 3-{[3′-(4-Chloro-2,5-dimethyl-benzenesulfonylamino)-3,5-dimethyl-biphenyl-4-carbonyl]-amino}-azetidine-3-carboxylic acid]
1 | COc1cc(-c2cccc(NS(=O)(=O)c3cc(C)c(Cl)cc3C)c2)ccc1C(=O)NCC(=O)O [Example 70, {[3′-(4-Chloro-2,5-dimethyl-benzenesulfonylamino)-3-methoxy-biphenyl-4-carbonyl]-amino}-acetic acid]
1.7 | Cc1cc(S(=O)(=O)Nc2cccc(-c3ccc(C(=O)N(C)[C@@H](CO)C(=O)O)cc3)c2)c(C)cc1Cl [Example 85, (S)-2-{[3′-(4-Chloro-2,5-dimethyl-benzenesulfonylamino)-biphenyl-4-carbonyl]-methyl-amino}-3-hydroxy-propionic acid]
0.8 | Cc1cc(S(=O)(=O)Nc2cccc(-c3ccc(C(=O)NC4(C(=O)O)CC4)c(C)c3)c2)c(C)cc1Cl [Example 57, 1-{[3′-(4-Chloro-2,5-dimethyl-benzenesulfonylamino)-3-methyl-biphenyl-4-carbonyl]-amino}-cyclopropanecarboxylic acid]
